# Literature values in patent US9181307B2, “Influenza A 2009 pandemic H1N1 polypeptide fragments comprising endonuclease activity and their use” (priority 2010, dated 2015).
# Target: influenza endonuclease (Influenza A virus, UniProt P03433)
# Conditions: recently reported, Kuzuhara 2009; cited from earlier work
structure (smiles),measurement,value
"O=C(O[C@@H]1Cc2c(O)cc(O)cc2O[C@@H]1c1cc(O)c(O)c(O)c1)c1cc(O)c(O)c(O)c1 [EGCG, [(2R,3R)-5,7-dihydroxy-2-(3,4,5-trihydroxyphenyl)chroman-3-yl]3,4,5-trihydroxybenzoate]",inhibits the influenza endonuclease,inhibits the influenza endonuclease
